{"source": "patent US20150344426A1", "about": "“COMPOUNDS AND THERAPEUTIC USES THEREOF” (ALZHEIMER'S INSTITUTE OF AMERICA, INC., priority 2012, published 2015)", "key": {"[1]": {"assay": "Experiment 2: femoral vein samples of rats after IV Parent Compound A", "assay_type": "in vivo, female Sprague Dawley rats", "details": "for [Par. Cmp. A]: listed as Par. Cmp. A", "description": "Experiment 2. Three female Sprague Dawley rats (215-250 g, Charles River Laboratories) with a catheter implanted surgically in the femoral vein for blood sampling were used in this study. Parent Compound A, solubilized in 3% DMA, 40% PEG300, 12% ethanol, and 45% water by volume, was administered IV at a dose of 2.5 mg/kg in a volume of 2 mL/kg. Femoral blood samples were collected from each animal at 0.083, 0.25, 0.5, 1, 2, 4, and 8 hours following administration of compound and processed for analysis of Parent Compound A concentration.\nPharmacokinetic parameters estimated for Parent Compound A included the maximum observed drug concentration (Cmax), time of maximum observed drug concentration (Tmax), apparent terminal half-life (t1/2), area under the concentration-time curve from time zero to 8 hours postdose (AUC(0-8)), and area under the concentration-time curve extrapolated to infinity (AUC(0-inf)). The bioavailability (% F) of Parent Compound A in portal vein samples relative to IV administration was also estimated.\nPlasma samples were analyzed for Example Compound 35 or Parent Compound A concentration using a LC-MS/MS method. All sample runs met standard acceptance criteria for discovery purposes, and were based on a standard curve containing at least 7 points. At least half of quality control samples at each of the three concentrations tested, and two thirds of the entire quality control sample pool, were within 15% of their theoretical value. The r^2 value for each standard curve was ≧0.99. The quantitation range for the Example Compound 35 and Parent Compound A assays was 1 to 100 ng/mL and 5 to 2,500 ng/mL, respectively, using a 0.05 mL sample volume.\nThe data were entered into the PK software package WinNonlin® version 5.1.1. A complete data check was conducted to verify the accuracy of data entry.\nPharmacokinetic parameters were estimated on median plasma concentrations using extravascular input (PO). Nominal collection times after administration of compound were used for PK analyses. The use of a non-compartmental model provided an adequate fit of the data. Pharmacokinetic parameters estimated for Parent Compound A included the maximum observed drug concentration (Cmax), time of maximum observed drug concentration (Tmax), apparent terminal half-life (t1/2), apparent volume of distribution (Vz obs), apparent clearance (C1 obs), area under the concentration-time curve from time zero to 8 hours postdose of Example Compound 35 […], and area under the concentration-time curve extrapolated to infinity (AUC(0-inf)). Example Compound 35 was detected in only one 0.25 hour hepatic portal vein sample at 1.29 ng/mL. Any Example Compound 35 present in all of the other samples was below the quantitation limit of 1 ng/mL and pharmacokinetic parameters were not determined for those samples. The median PK parameters estimated for Parent Compound A following portal vein sampling of the oral dose of Example Compound 35 or following femoral vein sampling of the intravenous dose of Parent Compound A are given in the Table 5 below. Individual and median concentration of Parent Compound A and Example Compound 35 in hepatic portal vein following oral administration of Example Compound 35 (20 mg/kg) to rats pursuant to Experiment 1 are shown in Table 6 below. Individual and median plasma concentration of Parent Compound A in femoral vein following IV administration of Parent Compound A (2.5 mg/kg) to rats pursuant to Experiment 2 are shown in Table 7 below. FIG. 5 depicts median concentration of Parent Compound A and Example Compound 35 in hepatic portal vein of rats following a single oral dose of Example Compound 35 (20 mg/kg). FIG. 6 depicts median plasma concentration of Parent Compound A following a single IV dose of Parent Compound A (2.5 mg/kg) to rats. […]"}, "[2]": {"assay": "Stability in mouse plasma", "assay_type": "in vitro ADME", "details": "read-out: Mouse Plasma t1/2", "description": "Relative stability of Example Compound Nos. 1 through 60 in mouse plasma and mouse liver microsomal preparations.\nCertain Example Compounds were each added to a final concentration of 1 μM to 1 mL of each of mouse plasma and mouse liver microsomal preparations (with and without 1 mM NADPH). Stability assays were run in duplicate and were sampled at 0, 5, 15, 30, 60 and 120 minutes as follows: one hundred microliter aliquots of samples were removed at the specified sampling times, and the reaction was quenched with 400 μL of acetonitrile.\nSamples were analyzed by HPLC-ESI-MS/MS by measuring the peak area of both the starting Example Compound and parent compound (i.e., either Parent Compound A or Parent Compound B) that were created by removal of the Prodrug Moiety (as defined in Section 6 herein)."}, "[3]": {"assay": "Stability assessment / semi-quantitative hygroscopicity in a relative humidity (RH) chamber", "assay_type": "physicochemical", "details": "solid in RH chamber; morphology and parent:prodrug composition", "description": "“ND” in Table 2 refers to “No Data”. Purity was determined by HPLC. Melting point was determined by differential scanning calorimetry (“DSC”), and semi-quantitative hygroscopicity was determined in a relative humidity (“RH”) chamber."}, "[4]": {"assay": "Kinetic solubility (iSol Explorer method)", "assay_type": "physicochemical", "details": "system solution buffer (pION), aqueous buffer, kinetic from dmso stock", "description": "Kinetic solubility was determined using the iSol Explorer method (pION Inc.; Woburn, Mass.). Certain Example Compounds were dissolved in dimethylsulfoxide (DMSO; >99.9% ACS spectrophotometric grade; Sigma-Aldrich, St. Louis, Mo.) to a concentration of 100 mM. The DMSO stock was diluted 1:100 in system solution buffer (pION Inc. Wobum Mass.) that had been adjusted to the desired pH (5.0, 6.8, and 7.4) with either HCl or NaOH. The diluted samples in the desired buffer were incubated for 15 minutes at room temperature and filtered using 96-well plate with 0.25 mm glass fiber/1.2 μm polyethersulfone filter bottoms (Corning, Inc.; Corning, N.Y.). The filtrate is transferred to a second 96-well plate and read on a SpectraMAX 190 (Molecular Devices; Sunnyvale, Calif.) scanning from 190 to 498 nm. The data are analyzed with Sol Explorer Command version 2.2, (pION Inc. Woburn, Mass.) and the concentration reported in molarity and/or mass per volume."}, "[5]": {"details": "female, Sprague-Dawley, rat, plasma (femoral vein), Parent Cmpd. A 2.5 mg/kg IV, Femoral Vein, median"}}, "note": "Where “and” joins values, the source holds several entries; their conditions need not be identical. Equal values may be shown once. Read-outs that look alike come from different tables or passages of the source.", "data": [{"smiles": "O=C(NCc1cccnc1)Nc1ccc(OCCc2ccccc2-c2ccccc2)cc1", "note": "[Parent Compound A, 1-{4-[2-(Biphenyl-2-yl)ethoxy]phenyl}-3-(pyridin-3-ylmethyl)urea]", "values": [{"measurement": "concentration at 0.083 h", "setting": "[1]; female, Sprague-Dawley, rat, plasma (femoral vein), iv, 2.5 mg/kg, femoral vein plasma, 0.083 hr after IV Parent Compound A 2.5 mg/kg, read-out: Median [Par. Cmp. A]", "value": 1920, "unit": "ng/mL"}, {"measurement": "concentration at 0.25 h", "setting": "[1]; female, Sprague-Dawley, rat, plasma (femoral vein), iv, 2.5 mg/kg, femoral vein plasma, 0.25 hr after IV Parent Compound A 2.5 mg/kg, individual rats, read-out: [Par. Cmp. A]", "value": 1610, "unit": "ng/mL"}, {"measurement": "concentration at 0.25 h", "setting": "[1]; female, Sprague-Dawley, rat, plasma (femoral vein), iv, 2.5 mg/kg, femoral vein plasma, 0.25 hr after IV Parent Compound A 2.5 mg/kg, read-out: Median [Par. Cmp. A]", "value": 1130, "unit": "ng/mL"}, {"measurement": "concentration at 0.5 h", "setting": "[1]; female, Sprague-Dawley, rat, plasma (femoral vein), iv, 2.5 mg/kg, femoral vein plasma, 0.5 hr after IV Parent Compound A 2.5 mg/kg, individual rats, read-out: [Par. Cmp. A]", "value": 568, "unit": "ng/mL"}, {"measurement": "concentration at 0.5 h", "setting": "[1]; female, Sprague-Dawley, rat, plasma (femoral vein), iv, 2.5 mg/kg, femoral vein plasma, 0.5 hr after IV Parent Compound A 2.5 mg/kg, read-out: Median [Par. Cmp. A]", "value": 720, "unit": "ng/mL"}, {"measurement": "concentration at 1 h", "setting": "[1]; female, Sprague-Dawley, rat, plasma (femoral vein), iv, 2.5 mg/kg, femoral vein plasma, 1 hr after IV Parent Compound A 2.5 mg/kg, individual rats, read-out: [Par. Cmp. A]", "value": 343, "unit": "ng/mL"}, {"measurement": "concentration at 1 h", "setting": "[1]; female, Sprague-Dawley, rat, plasma (femoral vein), iv, 2.5 mg/kg, femoral vein plasma, 1 hr after IV Parent Compound A 2.5 mg/kg, read-out: Median [Par. Cmp. A]", "value": 360, "unit": "ng/mL"}, {"measurement": "concentration at 2 h", "setting": "[1]; female, Sprague-Dawley, rat, plasma (femoral vein), iv, 2.5 mg/kg, femoral vein plasma, 2 hr after IV Parent Compound A 2.5 mg/kg, individual rats, read-out: [Par. Cmp. A]", "value": 136, "unit": "ng/mL"}, {"measurement": "concentration at 2 h", "setting": "[1]; female, Sprague-Dawley, rat, plasma (femoral vein), iv, 2.5 mg/kg, femoral vein plasma, 2 hr after IV Parent Compound A 2.5 mg/kg, read-out: Median [Par. Cmp. A]", "value": 177, "unit": "ng/mL"}, {"measurement": "concentration at 4 h", "setting": "[1]; female, Sprague-Dawley, rat, plasma (femoral vein), iv, 2.5 mg/kg, femoral vein plasma, 4 hr after IV Parent Compound A 2.5 mg/kg, read-out: Median [Par. Cmp. A]", "value": 26.2, "unit": "ng/mL"}, {"measurement": "concentration at 8 h", "setting": "[1]; female, Sprague-Dawley, rat, plasma (femoral vein), iv, 2.5 mg/kg, femoral vein plasma, 8 hr after IV Parent Compound A 2.5 mg/kg, individual rats, * = below the quantitation limit of 5 ng/mL, read-out: [Par. Cmp. A]", "value": 1.98, "unit": "ng/mL"}, {"measurement": "concentration at 8 h", "setting": "[1]; female, Sprague-Dawley, rat, plasma (femoral vein), iv, 2.5 mg/kg, femoral vein plasma, 8 hr after IV Parent Compound A 2.5 mg/kg, read-out: Median [Par. Cmp. A]", "value": 2.1, "unit": "ng/mL"}, {"measurement": "AUC(0-inf)", "setting": "[1]; [5]", "value": 1460, "unit": "ng·h/mL"}, {"measurement": "Cmax", "setting": "[1]; [5]", "value": 1920, "unit": "ng/mL"}, {"measurement": "Tmax", "setting": "[1]; [5]", "value": 4.2, "unit": "min"}, {"measurement": "half-life", "setting": "[1]; [5]", "value": 1, "unit": "h"}, {"measurement": "AUC(0-t)", "setting": "[1]; female, Sprague-Dawley, rat, plasma (femoral vein), Parent Cmpd. A 2.5 mg/kg IV, Femoral Vein, median, read-out: AUC(0-8)", "value": 1460, "unit": "ng·h/mL"}, {"measurement": "[Par. Cmp. A]", "setting": "[1]; femoral vein plasma, 0.083 hr after IV Parent Compound A 2.5 mg/kg, individual rats, 2.5 mg/kg", "value": "1,303.7 ng/mL and 2,660.1 ng/mL and 1,924.0 ng/mL"}, {"measurement": "[Par. Cmp. A]", "setting": "[1]; femoral vein plasma, 0.25 hr after IV Parent Compound A 2.5 mg/kg, individual rats, 2.5 mg/kg", "value": "1,131.8 ng/mL and 878.3 ng/mL"}, {"measurement": "[Par. Cmp. A]", "setting": "[1]; femoral vein plasma, 0.5 hr after IV Parent Compound A 2.5 mg/kg, individual rats, 2.5 mg/kg", "value": "1,062.6 ng/mL and 719.5 ng/mL"}, {"measurement": "[Par. Cmp. A]", "setting": "[1]; femoral vein plasma, 1 hr after IV Parent Compound A 2.5 mg/kg, individual rats, 2.5 mg/kg", "value": "565.0 ng/mL and 360.4 ng/mL"}, {"measurement": "[Par. Cmp. A]", "setting": "[1]; femoral vein plasma, 2 hr after IV Parent Compound A 2.5 mg/kg, individual rats, 2.5 mg/kg", "value": "268.6 ng/mL and 177.2 ng/mL"}, {"measurement": "[Par. Cmp. A]", "setting": "[1]; femoral vein plasma, 4 hr after IV Parent Compound A 2.5 mg/kg, individual rats, 2.5 mg/kg", "value": "19.7 ng/mL and 39.7 ng/mL and 26.2 ng/mL"}, {"measurement": "[Par. Cmp. A]", "setting": "[1]; femoral vein plasma, 8 hr after IV Parent Compound A 2.5 mg/kg, individual rats, * = below the quantitation limit of 5 ng/mL, 2.5 mg/kg", "value": "2.05* ng/mL and 2.81* ng/mL"}]}, {"smiles": "O=C(NCc1ccc[n+](COC(=O)c2ccccc2)c1)Nc1ccc(OCCc2ccccc2-c2ccccc2)cc1", "note": "[Example 35, 1-[(Benzoyloxy)methyl]-3-{[({4-[2-(biphenyl-2-yl)ethoxy]phenyl}carbamoyl)amino]methyl} pyridinium]", "values": [{"measurement": "half-life at 1 µM", "setting": "[2]", "value": 1.29, "unit": "h"}, {"measurement": "Stability at 40° C. and 75% RH", "setting": "[3]", "value": "No change in morphology stopped at 13 days, only prodrug observed"}, {"measurement": "Stability at 60° C. and 75% RH", "setting": "[3]", "value": "Deliquesced at 7 days, approx 30:70 parent to prodrug observed"}, {"measurement": "solubility at 15 min", "setting": "[4]; pH 5.0, 15 minutes at room temperature", "value": 402, "unit": "µM"}, {"measurement": "solubility at 15 min", "setting": "[4]; pH 6.8, 15 minutes at room temperature", "value": 404, "unit": "µM"}, {"measurement": "solubility at 15 min", "setting": "[4]; pH 7.4, 15 minutes at room temperature", "value": 433, "unit": "µM"}]}]}
